Reference: US12416008B2, “Compositions and methods of use for small-molecule regulation of CRISPR-Cas9 activity using RNA aptamers” (priority 2019, dated 2025)
Marks after values point to notes of the source that are not given here.

Tests used:
[1] = test system: galK (site 1) and xylA (site 2); test: multiplexed gene editing with theophylline-regulated GU19-agRNA and 3MX-regulated A9-agRNA on one plasmid; assay type: cell-based, E. coli; details: 3-hour induction with 1 mM of a single ligand
Description: A plasmid was designed that expressed a theophylline-regulated GU19-agRNA targeting galK1 and a 3-methylxanthine (3MX)-regulated A9-agRNA targeting the xylA gene. […] The plasmid construct was then used for a 3-hour induction with either 1 mM theophylline, 1 mM 3MX or a combination of the two and the transformed bacteria were plated on MacConkey agar that contained either galactose, xylose or both to assay editing of the galK and xylA genes with the red/white screen (FIG. 3D, FIG. 11).
For the purpose of first adding theophylline and later 3MX to independently induce two different agRNAs, the protocol was slightly modified. First, the bacteria were prepared and transformed as in the original protocol, 1 mM theophylline was added to the media and the culture was shaken at 30° C. for three hours. Then, the culture was heat-shocked again at 42° C. for 15 minutes to induce expression of the lambda-red proteins again and 1 mM 3MX was added to the media. The culture was shaken at 37° C. for three hours and then plated.

[2] = biological target: isolated aptamer (theophylline aptamer); details: theophylline binding; cited from earlier work
galK 1 site [3] = test: red/white colony screen of editing efficiency at the galK 1 site (CREATE recombineering); assay type: cell-based, E. coli MG1655; details: galK1 site; agRNAs A9 and GU19 (FIG. 2A)
galK 1 site [4] = test: as above; assay type: cell-based, E. coli MG1655; details: for Editing Efficiency 1 mM Theo: induced for 3 hours with 1 mM theophylline; for Editing Efficiency no Theo: no theophylline, 3 hours recovery
Description: Candidates from this enriched library were analyzed to inform an improved library design. After three selection/counterselection steps, cells were plated on M63 selection medium^20 and 150 colonies were picked. Each isolated candidate was then transformed into unedited E. coli to screen for theophylline-responsive constructs using a red/white colony assay to quantify the percentage of edited bacteria. Colonies with an unedited galK site appear red whereas edited colonies appear white (FIG. 5). The percentage of white colonies is considered the editing efficiency. Gene editing was induced as previously described with or without adding theophylline and the editing efficiencies were compared.
The protocol established by Garst et al was mainly followed. LB containing kanamycin and chloramphenicol was inoculated with MGλ9 cells and grown overnight at 30° C. The stationary culture was diluted 100 fold in LB, containing chloramphenicol, kanamycin and 0.2% arabinose and grown to an OD600=0.4-0.6 in 25 mL LB. The culture was heat-shocked in a shaking waterbath at 42° C. for 15 minutes to induce expression of the lambda-red proteins from pSIM5. Then, the culture was washed in two volumes of ice-cold deionized water, resuspended in 500 μl deionized water and 50 μl of the cell suspension was electroporated with 200 ng of a CREATE plasmid that encodes gRNA and homology template. The transformants were recovered in 4 mL of LB, containing 0.2% arabinose and optionally 1 mM theophylline or 1 μM anhydrotetracycline (ATC), and shaken at 37° C. for 3 hours before plating on MacConkey Agar. To estimate the number of cfu, aliquots were plated on LB agar 1 hour after transformation.
(§1) In order to assess the frequency of gene editing, a red/white screen was used to visualize the introduction of a stop codon into the galK gene by CREATE. The original CREATE protocol was used for inducing gene editing and after 3 hours of recovery (with or without the agRNA ligand) a series of dilutions of the cultures were plated on MacConkey Agar plates containing 1% galactose. Bacterial colonies with a mutated galK* site appear white on the plates, whereas non-edited colonies appear red. The editing efficiency could be calculated by dividing the number of edited colonies over the total number of colonies. By comparing the editing efficiency in presence versus absence of the ligand, a dynamic range of the in vivo activity could be determined.
When screening the enriched libraries for switchable constructs, the transformants were recovered in 4 mL of LB broth, a dilution series was plated for every construct and the experiment was only carried out once due to the large volume of colonies screened (˜250 in total). When the constructs A9 and GU19 were characterized in detail, triplica of the experiment were carried out.

MGλ9 strain = test: transformation and editing efficiency, agRNAs activated with theophylline 1 hour after transformation (aptamer-protocol); assay type: cell-based, E. coli; details: theophylline added 1 hour after transformation; for increase in number of transformants: versus wt gRNA
Description: FIGS. 3A-3D show aptamer-gRNAs enable high-throughput genome editing. FIG. 3A is a schematic showing the workflow of the aptamer-controlled gene editing. […] CFUs are colony forming units μg-1 DNA and per 4 mL of recovery media. […] Each dot represents a biological replicate and error bars indicate standard deviation from the mean. FIG. 3C is a schematic of the plasmid design used to enable multiplexed gene editing. The individual homology arms and agRNAs are identical to the ones previously described for the single-edit experiments. […] The values represent the average of three biological replicates.
Equipped with temporally controllable agRNAs, the gene editing technology CREATE^10 was optimized. One major drawback of CRISPR-mediated bacterial gene editing technologies is cell death caused by dsDNA cuts^10, despite overexpression of λ-red proteins to increase the frequency of homologous repair. Without wishing to be bound by theory, it is hypothesized that the stress of transformation combined with rapid generation of dsDNA breaks synergistically leads to a high level of cell death. […] Although a low transformation efficiency is not a significant issue when creating a single edit with a defined sgRNA, it dramatically impacts the ability to transform a library of sgRNA plasmids to generate a population of bacteria with different edits. In this process, a portion of gRNAs from the library is expected to be non-functional due to errors in oligonucleotide synthesis, sgRNA misfolding, or inefficient targeting.
LB containing kanamycin and chloramphenicol was inoculated with MGλ9 cells and grown overnight at 30° C. The stationary culture was diluted 100 fold in LB, containing chloramphenicol and kanamycin and grown to an OD600=0.4-0.6 in 25 mL LB. Then, the culture was washed in two volumes of ice-cold deionized water, resuspended in 500 μl deionized water and 50 μl of the cell suspension was electroporated with 200 ng of a CREATE plasmid that encodes gRNA and homology template. The transformants were recovered in 4 mL of LB, containing 0.2% arabinose and shaken at 30° C. for 1 hour. The culture was heat-shocked in a shaking waterbath at 42° C. for 15 minutes and 1 mM theophylline or 1 μM ATC was added to the culture. The culture was shaken at 37° C. for 3 hours before plating on MacConkey Agar. To estimate the number of cfu, aliquots were plated on LB agar 1 hour after transformation.

[5] = test system: alternative sites at the galK gene; test: editing at three more alternative sites at the galK gene; assay type: cell-based, E. coli; details: with or without 1 mM theophylline
Description: (§2) Promising agRNA constructs were analyzed in further detail. […] The xylA gene was targeted with these 17 agRNAs to test whether a different spacer sequence affects the performance. Editing was quantified with the same red/white screen. […] To confirm sequence independence of those two agRNAs, they were used to edit three more alternative sites at the galK gene. […] Sequencing confirmed that the phenotypic change in the assay corresponded to a designed genomic edit (FIG. 7). The observation that a number of agRNAs only act at the selected galK1 site highlights that the CRISPR-Cas9 system can be selected to act at a single sequence, a feature that could be exploited for reducing off-target effects.
as §1, with “Bacterial colonies with a mutated galK* site appear white on the plates, whereas non-edited colonies appear red.” left out

[6] = biological target: T1, Streptococcus pyogenes Cas9 (Streptococcus pyogenes serotype M1, UniProt Q99ZW2); test: electrophoretic mobility shift assay (EMSA) of Cas9 binding to gRNAs; details: presence or absence of 250 μM theophylline
T1 construct: host or cells: E. coli BL21 (DE3) Rosetta
T1 sequence (Q99ZW2 whole entry): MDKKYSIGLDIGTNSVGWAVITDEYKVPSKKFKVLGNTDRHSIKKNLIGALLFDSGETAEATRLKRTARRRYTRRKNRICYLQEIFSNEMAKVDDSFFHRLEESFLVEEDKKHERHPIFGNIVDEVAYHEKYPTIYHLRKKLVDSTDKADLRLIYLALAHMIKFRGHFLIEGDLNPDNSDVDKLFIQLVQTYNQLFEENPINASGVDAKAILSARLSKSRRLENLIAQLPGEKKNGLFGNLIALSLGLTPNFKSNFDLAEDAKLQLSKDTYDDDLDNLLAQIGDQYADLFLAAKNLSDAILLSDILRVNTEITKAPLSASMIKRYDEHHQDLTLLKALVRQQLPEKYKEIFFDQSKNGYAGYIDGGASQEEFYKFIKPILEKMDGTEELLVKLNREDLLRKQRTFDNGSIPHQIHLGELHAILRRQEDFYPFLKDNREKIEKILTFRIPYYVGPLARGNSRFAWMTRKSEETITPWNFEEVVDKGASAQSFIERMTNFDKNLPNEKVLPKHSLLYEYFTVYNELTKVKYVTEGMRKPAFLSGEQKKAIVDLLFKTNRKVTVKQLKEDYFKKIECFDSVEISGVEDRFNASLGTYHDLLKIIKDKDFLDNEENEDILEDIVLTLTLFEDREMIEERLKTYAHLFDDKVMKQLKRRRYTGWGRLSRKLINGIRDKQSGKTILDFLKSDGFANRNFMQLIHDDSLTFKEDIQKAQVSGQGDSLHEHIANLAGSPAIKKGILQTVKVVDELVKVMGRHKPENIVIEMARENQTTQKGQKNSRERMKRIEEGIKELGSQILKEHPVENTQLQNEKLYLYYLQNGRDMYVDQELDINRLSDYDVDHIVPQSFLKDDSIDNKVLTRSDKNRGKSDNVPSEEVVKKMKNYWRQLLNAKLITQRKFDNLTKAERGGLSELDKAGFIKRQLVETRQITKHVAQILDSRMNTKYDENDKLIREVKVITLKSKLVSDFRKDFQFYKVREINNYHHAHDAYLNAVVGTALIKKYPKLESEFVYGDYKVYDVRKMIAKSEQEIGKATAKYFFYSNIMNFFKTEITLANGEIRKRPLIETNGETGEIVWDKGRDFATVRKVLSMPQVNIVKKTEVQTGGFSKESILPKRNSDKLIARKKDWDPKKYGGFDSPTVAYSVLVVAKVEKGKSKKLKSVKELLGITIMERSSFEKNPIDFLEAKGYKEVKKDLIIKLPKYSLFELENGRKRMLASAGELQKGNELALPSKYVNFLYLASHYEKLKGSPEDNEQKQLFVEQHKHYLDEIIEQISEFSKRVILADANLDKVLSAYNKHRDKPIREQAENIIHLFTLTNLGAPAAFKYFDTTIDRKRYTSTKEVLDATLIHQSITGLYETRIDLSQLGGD

galK1 site = test: co-transformation of targeting gRNA plasmid with non-targeting gRNA plasmid (simulated library); details: for # of unedited colonies carrying non-targeting gRNA plasmid: 16 unedited colonies picked, 20 ng non-targeting + 180 ng targeting plasmid, 1 mM theophylline; for percentage of edited cells: plasmid mixture 90% targeting galK1, 10% non-targeting (eGFP) gRNA
xylA gene = test: red/white screen of editing at the xylA gene; assay type: cell-based, E. coli; details: 1 mM theophylline
Description: as §2
as §1, with “Bacterial colonies with a mutated galK* site appear white on the plates, whereas non-edited colonies appear red.” left out

Compound | editing of galK and xylA upon induction (in words) [1] | Kd [2] | dependence of editing efficiency on theophylline concentration and induction time (galK 1 site [3]) | Editing Efficiency 1 mM Theo (galK 1 site [4]) | Editing Efficiency no Theo (galK 1 site [4]) | editing efficiencies (MGλ9 strain) | increase in number of transformants (MGλ9 strain) | targetability of alternative galK sites (in words) [5] | apparent binding affinity to the Cas9 protein [6] | # of unedited colonies carrying non-targeting gRNA plasmid (galK1 site) | percentage of edited cells (galK1 site) | editing efficiency at xylA compared with galK1 (in words) (xylA gene)
Cn1c(=O)[nH]c(=O)c2nc[nH]c21 [3MX, 3-methylxanthine] | induced mostly editing of xylA and to a lesser extent galK | – | – | – | – | – | – | – | – | – | – | –
Cn1c(=O)c2[nH]cnc2n(C)c1=O [theophylline] | induced editing of the galK gene but not the xylA gene | 400 nM | increased with the concentration of theophylline and induction time | – | – | – | – | – | – | – | – | –
A9: agRNA cassette TGAAGGCCGCAACA, SEQ ID NO: 5 (chemistry not given here) | – | – | – | 81%** | 9%** | ~80% | 10^4 fold | Only one of those sites was not targetable | the same apparent binding affinity to the Cas9 protein as the wild type gRNA, independent of theophylline | 9/16 | 81% | editing efficiency at xylA similar to the galK1 site used during selection
GU19: agRNA cassette GATCGGCCATAGAT, SEQ ID NO: 51 (chemistry not given here) | – | – | – | 64%** | 3%** | ~80% | 10^4 fold | more site-dependent, but also showed less background activity | the same apparent binding affinity to the Cas9 protein as the wild type gRNA, independent of theophylline | 6/16 | 63% | editing efficiency at xylA similar to the galK1 site used during selection
